Data on 27 compounds can be found in US11702404B2, “GLP-1R modulating compounds” (priority 2019, dated 2023).

For one series, the target named is GLP-1R (Homo sapiens, UniProt P43220). In words: GLP-1R activation: cAMP increase in CHO cells stably expressing GLP-1R. The series is classed as cell-based. As to conditions: cAMP increase, CHO cells stably expressing GLP-1R, 10 point dose response, 30 minutes incubation; read-out: EC50.
Series [1] is described as follows: Microsomal stability, human liver microsomes (predicted hepatic clearance). As to conditions: predicted from in vitro microsomal stability data.

GLP-1R, sequence (P43220 24-463): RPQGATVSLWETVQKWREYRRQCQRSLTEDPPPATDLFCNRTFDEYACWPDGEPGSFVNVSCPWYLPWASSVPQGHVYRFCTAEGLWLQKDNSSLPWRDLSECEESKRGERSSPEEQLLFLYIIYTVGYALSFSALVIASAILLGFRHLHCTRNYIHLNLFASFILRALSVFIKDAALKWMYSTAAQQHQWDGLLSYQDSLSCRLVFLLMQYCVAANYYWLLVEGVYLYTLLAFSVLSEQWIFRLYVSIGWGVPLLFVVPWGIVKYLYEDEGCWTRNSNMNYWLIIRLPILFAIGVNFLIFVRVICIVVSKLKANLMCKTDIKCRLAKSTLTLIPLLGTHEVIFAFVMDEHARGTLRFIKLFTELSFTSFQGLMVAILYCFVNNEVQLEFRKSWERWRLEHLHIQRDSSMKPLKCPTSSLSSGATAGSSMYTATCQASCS

The EC50 is the concentration that produces a half-maximal response. `O=C(O)c1cc(F)c2nc(Cc3cc(F)c(-c4ccc(F)c(OCc5ccc(C(F)(F)F)cc5F)n4)cc3F)n(C[C@@H]3CCO3)c2c1` [Example 765]: the EC50 at GLP-1R was 0.51 nM. Besides, the “Predicted Hepatic Clearance (Pred. Cl.)” value in series [1] is 1.83 mL/min/kg.
The like results for `COCCn1c(Cc2ccc(-c3cccc(OCc4ccc(C#N)cc4F)n3)cc2C2CC2)nc2ccc(C(=O)O)cc21` [Example 178, 2-(4-(6-((4-cyano-2-fluorobenzyl)oxy)pyridin-2-yl)-2-cyclopropylbenzyl)-1-(2-methoxyethyl)-1H-benzo[d]imidazole-6-carboxylic acid] were, in that order, 32.5 nM and 9.83 mL/min/kg.
On to `COCCn1c(Cn2cc(F)c(-c3cccc(OCc4ccc(C#N)cc4F)n3)cc2=O)nc2c(F)cc(C(=O)O)cc21` [Example 684], for which the EC50 on GLP-1R was determined as 0.29 nM. For the same compound, in series [1], the “Predicted Hepatic Clearance (Pred. Cl.)” value was 3 mL/min/kg.
The like results for `O=C(O)c1ccc2nc(Cc3c(F)cc(-c4cccc(OCc5ccc(C(F)F)cc5F)n4)c(F)c3F)n(CC34CC(CO3)C4)c2c1` [Example 756] were, in that order, 1.42 nM and 7.67 mL/min/kg.
The like results for `CO[C@@H](C)Cn1c(Cc2cc(F)c(-c3cccc(OCc4ccc(C#N)cc4F)n3)cc2F)nc2ccc(C(=O)O)cc21` [Example 587, (S)-2-(4-(6-((4-cyano-2-fluorobenzyl)oxy)pyridin-2-yl)-2,5-difluorobenzyl)-1-(2-methoxypropyl)-1H-benzo[d]imidazole-6-carboxylic acid] were, in that order, 2.15 nM and 6.83 mL/min/kg.
The like results for `N#Cc1ccc(COc2cccc(-c3cc(F)c(Cc4nc5ccc(C(=O)O)cc5n4CC4(O)CC4)cc3F)n2)c(F)c1` [Example 733] were, in that order, 2.47 nM and 3.83 mL/min/kg.
As for `N#Cc1ccc(COc2nc(-c3cc(F)c(Cc4nc5c(F)cc(C(=O)O)cc5n4C[C@@H]4CCO4)cc3F)ccc2F)c(F)c1` [Example 768], on GLP-1R, the EC50 is 0.04 nM. Further, the “Predicted Hepatic Clearance (Pred. Cl.)” value in series [1] was 2.75 mL/min/kg.
For the compound `N#Cc1ccc(COc2cccc(-c3cc(F)c(Cc4nc5ccc(C(=O)O)cc5n4CC4(n5cncn5)CC4)cc3F)n2)c(F)c1` [Example 274, 1-((1-(1H-1,2,4-triazol-1-yl)cyclopropyl)methyl)-2-(4-(6-((4-cyano-2-fluorobenzyl)oxy)pyridin-2-yl)-2,5-difluorobenzyl)-1H-benzo[d]imidazole-6-carboxylic acid], the EC50 on GLP-1R stood at 0.23 nM. Also, the “Predicted Hepatic Clearance (Pred. Cl.)” value in series [1] was 8 mL/min/kg.
The like results for `N#CCC1(Cn2c(Cc3cc(F)c(-c4ccnc(OCc5ccc(C#N)cc5F)n4)cc3F)nc3ccc(C(=O)O)cc32)CC1` [Example 441, 2-(4-(2-((4-cyano-2-fluorobenzyl)oxy)pyrimidin-4-yl)-2,5-difluorobenzyl)-1-((1-(cyanomethyl)cyclopropyl)methyl)-1H-benzo[d]imidazole-6-carboxylic acid] were, in that order, 0.21 nM and 3 mL/min/kg.
The like results for `N#Cc1ccc(COc2cccc(-c3ccc(Cc4nc5ccc(C(=O)O)cc5n4CC4(C(F)F)CCC4)c(F)c3)n2)c(F)c1` [Example 385, 2-(4-(6-((4-cyano-2-fluorobenzyl)oxy)pyridin-2-yl)-2-fluorobenzyl)-1-((1-(difluoromethyl)cyclobutyl)methyl)-1H-benzo[d]imidazole-6-carboxylic acid] were, in that order, 1.34 nM and 5.33 mL/min/kg.
The like results for `COCCn1c(Cc2c(F)cc(-c3cccnc3OCc3ccc(Cl)cc3F)cc2F)nc2ccc(C(=O)O)cc21` [Example 174, 2-(4-(2-((4-chloro-2-fluorobenzyl)oxy)pyridin-3-yl)-2,6-difluorobenzyl)-1-(2-methoxyethyl)-1H-benzo[d]imidazole-carboxylic acid] were, in that order, 32.9 nM and 5.67 mL/min/kg.
With `COCCn1c(Cc2cc(F)c(-c3cccc(OCc4cc(F)c(C(F)F)cc4F)n3)cc2F)nc2ccc(C(=O)O)cc21` [Example 863], on GLP-1R, the EC50 was determined as 5.51 nM. Besides, the “Predicted Hepatic Clearance (Pred. Cl.)” value in series [1] is 4.83 mL/min/kg.
The like results for `N#Cc1cc(F)c(COc2ccnc(-c3cc(F)c(Cc4nc5ccc(C(=O)O)cc5n4C[C@@H]4CCO4)cc3F)n2)cc1F` [Example 755] were, in that order, 0.42 nM and 9.83 mL/min/kg.
The like results for `N#Cc1ccc(COc2nccc(-c3ccc(Cc4nc5ccc(C(=O)O)nc5n4CC4(CF)CC4)cc3F)n2)c(F)c1` [Example 302, 2-(4-(2-((4-cyano-2-fluorobenzyl)oxy)pyrimidin-4-yl)-3-fluorobenzyl)-3-((1-(fluoromethyl)cyclopropyl)methyl)-3H-imidazo[4,5-b]pyridine-5-carboxylic acid] were, in that order, 1.21 nM and 2.67 mL/min/kg.
The like results for `COCCn1c(Cc2ccc(-c3cccc(OCc4ccc(C#N)cc4F)n3)c(F)c2C#N)nc2ccc(C(=O)O)cc21` [Example 391, 2-(2-cyano-4-(6-((4-cyano-2-fluorobenzyl)oxy)pyridin-2-yl)-3-fluorobenzyl)-1-(2-methoxyethyl)-1H-benzo[d]imidazole-6-carboxylic acid] were, in that order, not below 1000 nM and 5.42 mL/min/kg.
With `COCCn1c(Cc2ccc(-c3cccc(OCc4ccc(Cl)c(C(C)C)c4)n3)cc2F)nc2ccc(C(=O)O)cc21` [Example 156, 2-(4-(6-((4-chloro-3-isopropylbenzyl)oxy)pyridin-2-yl)-2-fluorobenzyl)-1-(2-methoxyethyl)-1H-benzo[d]imidazole-6-carboxylic acid], at GLP-1R, the EC50 was 51.5 nM. The “Predicted Hepatic Clearance (Pred. Cl.)” value in series [1] was 5.5 mL/min/kg.
The like results for `N#Cc1ccc(COc2cccc(-c3cnc(Cc4nc5ccc(C(=O)O)cc5n4C[C@@H]4CCO4)c(F)c3)n2)c(F)c1` [Example 682] were, in that order, 0.59 nM and 2.5 mL/min/kg.
Turning to `COCCn1c(Cc2ccc(-c3cccc(OCc4ccc(C#N)cc4F)n3)cc2-c2ccncc2)nc2ccc(C(=O)O)cc21` [Example 175, 2-(4-(6-((4-cyano-2-fluorobenzyl)oxy)pyridin-2-yl)-2-(pyridin-4-yl)benzyl)-1-(2-methoxyethyl)-1H-benzo[d]imidazole-6-carboxylic acid], the EC50 at GLP-1R stood at 9270 nM. For the same compound, the “Predicted Hepatic Clearance (Pred. Cl.)” value in series [1] was 15.7 mL/min/kg.
As to `COCCn1c(Cc2ccc(-c3cccc(OCc4ccc(Cl)c5ccoc45)n3)cc2F)nc2ccc(C(=O)O)cc21` [Example 143, 2-(4-(6-((4-chlorobenzofuran-7-yl)methoxy)pyridin-2-yl)-2-fluorobenzyl)-1-(2-methoxyethyl)-1H-benzo[d]imidazole-6-carboxylic acid], on GLP-1R, the EC50 is 2.59 nM. Besides, the “Predicted Hepatic Clearance (Pred. Cl.)” value in series [1] was 5.33 mL/min/kg.
Consider `N#Cc1ccc(COc2cccc(-c3cc(F)c(Cc4nc5ccc(C(=O)O)cc5n4Cc4cncs4)cc3F)n2)c(F)c1` [Example 706], for which the EC50 at GLP-1R came to 1.31 nM. Further, the “Predicted Hepatic Clearance (Pred. Cl.)” value in series [1] was 12.2 mL/min/kg.
In the case of `COCCn1c(Cc2ccc(-c3cccc(OCc4ccc5c(c4)OC(F)(F)O5)n3)cc2F)nc2ccc(C(=O)O)cc21` [Example 250, 2-(4-(6-((2,2-difluorobenzo[d][1,3]dioxol-5-yl)methoxy)pyridin-2-yl)-2-fluorobenzyl)-1-(2-methoxyethyl)-1H-benzo[d]imidazole-6-carboxylic acid], on GLP-1R, the EC50 turned out to be 11.7 nM. Besides, in series [1], the “Predicted Hepatic Clearance (Pred. Cl.)” value is less than 1.83 mL/min/kg.
The like results for `COCCn1c(Cc2ccc(-c3cccc(OCc4cccn(C)c4=O)n3)cc2F)nc2ccc(C(=O)O)cc21` [Example 374, 2-(2-fluoro-4-(6-((1-methyl-2-oxo-1,2-dihydropyridin-3-yl)methoxy)pyridin-2-yl)benzyl)-1-(2-methoxyethyl)-1H-benzo[d]imidazole-6-carboxylic acid] were, in that order, 1930 nM and 6.5 mL/min/kg.
Take `N#Cc1ccc(COc2cccc(-c3ccc(Cc4nc5ccc(C(=O)O)cc5n4Cc4ncco4)c(F)c3)n2)c(F)c1` [Example 371, 2-(4-(6-((4-cyano-2-fluorobenzyl)oxy)pyridin-2-yl)-2-fluorobenzyl)-1-(oxazol-2-ylmethyl)-1H-benzo[d]imidazole-6-carboxylic acid]: the half-maximal effective concentration (EC50) on GLP-1R is 1.61 nM. Also, the “Predicted Hepatic Clearance (Pred. Cl.)” value in series [1] is 3 mL/min/kg.
The like results for `N#Cc1ccc(COc2nccc(-c3cc(F)c(Cc4nc5ccc(C(=O)NS(=O)(=O)C6CC6)cc5n4C[C@@H]4CCO4)cc3F)n2)c(F)c1` [Example 685] were, in that order, 1.05 nM and 2.33 mL/min/kg.
The like results for `COCCn1c(Cc2ccc(-c3cccc(OCc4ccc(C#N)cc4F)n3)cc2OC(F)(F)F)nc2ccc(C(=O)O)cc21` [Example 40, 2-(4-(6-((4-cyano-2-fluorobenzyl)oxy)pyridin-2-yl)-2-(trifluoromethoxy)benzyl)-1-(2-methoxyethyl)-1H-benzo[d]imidazole-6-carboxylic acid] were, in that order, 456 nM and less than 1.83 mL/min/kg.
On to `COCCn1c(Cc2ccc(-c3cccc(OCc4ccc(C(F)(F)F)cc4)n3)cc2F)nc2ccc(C(=O)O)cc21` [Example 508, 2-(2-fluoro-4-(6-((4-(trifluoromethyl)benzyl)oxy)pyridin-2-yl)benzyl)-1-(2-methoxyethyl)-1H-benzo[d]imidazole-6-carboxylic acid], for which, on GLP-1R, the EC50 was determined as 16.5 nM. In series [1], the “Predicted Hepatic Clearance (Pred. Cl.)” value was 2.5 mL/min/kg.
The like results for `N#Cc1ccc(COc2cccc(-c3cc(F)c(Cc4nc5ccc(C(=O)O)nc5n4CC4(CF)CC4)c(F)c3)n2)c(F)c1` [Example 319, 2-(4-(6-((4-cyano-2-fluorobenzyl)oxy)pyridin-2-yl)-2,6-difluorobenzyl)-3-((1-(fluoromethyl)cyclopropyl)methyl)-3H-imidazo[4,5-b]pyridine-5-carboxylic acid] were, in that order, 2.43 nM and less than 1.83 mL/min/kg.
